The data set in a line: Human HepG2 cell viability assay in 384 well format. The class given is toxicity, cell-based. Also noted: dose 125 nL, time 70.5 hour; concentration not given beside the values. To be noted: HepG2 cells, read-out: Inhibition.

Each structure is given as a SMILES string.

Take `Cc1ccc(S(=O)(=O)N2CCCC3(CCCN3S(C)(=O)=O)C2)cc1F` (configuration not stated): the cytotoxicity at 70.5 h worked out at 0.261%.

As for `CNC(=O)[C@@]12CCC3(CCN(S(C)(=O)=O)CC3)[C@@H]1CN(C(C)=O)C2`, the cytotoxicity at 70.5 h is -0.353%.

Consider `CNC(=O)[C@@]12CCC3(CCN(S(=O)(=O)C4CC4)CC3)[C@@H]1CN(C(C)=O)C2`, for which the cytotoxicity at 70.5 h was 20.2%.

`COCc1ncn2c1CN(C(=O)c1ccc[nH]1)CC2`: the cytotoxicity at 70.5 h is -4.65%.

`CNC(=O)[C@@]12CCC3(CCN(C(=O)C(C)C)CC3)[C@@H]1CN(S(C)(=O)=O)C2`: the cytotoxicity at 70.5 h is 2.4%.

On to `Cc1nccc([C@@H]2C[C@H]3CN(S(=O)(=O)c4ccccc4)C[C@H]3O2)n1`, for which the cytotoxicity at 70.5 h was -2.27%.

Take `CC(C)CC(=O)N1CCCC2(CC(C(=O)Nc3ccccc3)=NO2)C1` (configuration not stated): the cytotoxicity at 70.5 h is -0.967%.

Take `O=C(Nc1ccccc1)C1=NOC2(CCCN(C(=O)C3CCCC3)C2)C1` (configuration not stated): the cytotoxicity at 70.5 h was -1.79%.

Regarding `CC(C)(C)CC(=O)N1CCCC2(CC(C(=O)Nc3ccccc3)=NO2)C1` (configuration not stated), the cytotoxicity at 70.5 h is -8.03%.

Consider `O=C(C1CCOCC1)N1C[C@H](OCc2cccnc2)[C@H]2COC[C@H]21`, for which the cytotoxicity at 70.5 h was -5.49%.

As to `O=C(c1cscn1)N1C[C@H](OCc2cccnc2)[C@H]2COC[C@H]21`, the cytotoxicity at 70.5 h was -5.24%.

`Cc1ccc(C(=O)N2C[C@H](OCc3cccnc3)[C@H]3COC[C@H]32)cn1`: the cytotoxicity at 70.5 h was -2.21%.

Take `COc1ncccc1C(=O)Nc1nc2c(s1)CN(S(=O)(=O)C1CC1)CC2`: the cytotoxicity at 70.5 h was determined as 3.95%.

Take `CS(=O)(=O)N1CCc2nc(NC(=O)Nc3c(F)cccc3F)sc2C1`: the cytotoxicity at 70.5 h is 0.946%.

On to `Cc1ccc(S(=O)(=O)NC2CNC(=O)C2)cc1C` (configuration not stated), for which the cytotoxicity at 70.5 h turned out to be 0.672%.

Consider `COc1cccc(S(=O)(=O)NC2CNC(=O)C2)c1` (configuration not stated), for which the cytotoxicity at 70.5 h came to 1.68%.

For the compound `O=C(c1cnn2c1OCCC2)N1CCC2(CC1)OCCO2`, the cytotoxicity at 70.5 h was -1.08%.

As for `COc1ccc(C)cc1NC(=O)Nc1cnc(N2CCN(C)CC2)nc1`, the cytotoxicity at 70.5 h turned out to be 16.2%.

On to `Cn1c(C(F)(F)F)nn(CCNC(=O)NCc2ccccc2)c1=O`, for which the cytotoxicity at 70.5 h is 16.5%.

`Cc1noc(-c2ccc(N3CCCC(C(=O)N4CCSCC4)C3)nc2)n1` (configuration not stated): the cytotoxicity at 70.5 h was found to be 3.88%.

For `O=C1CCSCC(C(=O)N2CCCC2)N1` (configuration not stated), the cytotoxicity at 70.5 h was -2.31%.

For `O=C1CCSCC(C(=O)N2CCN(C3CCCCC3)CC2)N1` (configuration not stated), the cytotoxicity at 70.5 h stood at 0.692%.

Turning to `CN(C)S(=O)(=O)N1CCC(Oc2ccccn2)CC1`, the cytotoxicity at 70.5 h came out at 3.95%.

For `CCOCC(=O)N1CCC(Oc2ccc(C(F)(F)F)cn2)CC1`, the cytotoxicity at 70.5 h was -4.36%.

In the case of `CCOCC(=O)N1CCC(Oc2ccc(Cl)cn2)CC1`, the cytotoxicity at 70.5 h is -4.45%.

On to `COc1ccccc1S(=O)(=O)N1CCC(Oc2cccnn2)CC1`, for which the cytotoxicity at 70.5 h was 3.7%.

In the case of `O=C(c1ccc(F)c(F)c1)N1CCCSCC1CN1CCCC1` (configuration not stated), the cytotoxicity at 70.5 h was -0.49%.

Regarding `Cc1cnc2n(c1=O)CC(C(=O)NC1CC1)CS2` (configuration not stated), the cytotoxicity at 70.5 h is 2.18%.

In the case of `Cc1cnc2n(c1=O)CC(C(=O)Nc1cccc3cccnc13)CS2` (configuration not stated), the cytotoxicity at 70.5 h was -5.53%.

Turning to `CCc1c(C)nc2n(c1=O)CC(C(=O)Nc1nccs1)CS2` (configuration not stated), the cytotoxicity at 70.5 h was determined as 33.6%.

With `COC(=O)N1CCc2ccc(NC(=O)c3cn(C)nn3)cc2C1`, the cytotoxicity at 70.5 h was -4.27%.

Take `O=C(CC1CCCC1)NCCn1ccc(-c2ccncc2)n1`: the cytotoxicity at 70.5 h turned out to be 9.19%.

For the compound `O=C(NCCn1ccc(-c2ccccn2)n1)c1ccncc1`, the cytotoxicity at 70.5 h was 11.3%.

On to `Cn1nc(CNC(=O)c2nc3ccccc3s2)c2c1CCOC2`, for which the cytotoxicity at 70.5 h was found to be 8.85%.

As for `Cn1nc(CNC(=O)C2CC2)cc1C1CC1`, the cytotoxicity at 70.5 h came out at 8.22%.

Take `Cn1cnnc1S(=O)(=O)C1CCN(S(=O)(=O)C2CC2)CC1`: the cytotoxicity at 70.5 h is -1.29%.

Consider `O=S(=O)(Nc1cnn(C2CCOCC2)c1)c1c(F)cccc1F`, for which the cytotoxicity at 70.5 h was -1.01%.

For the compound `O=C(CSC1CCc2ccccc2NC1=O)NCCO` (configuration not stated), the cytotoxicity at 70.5 h amounted to 2.81%.

With `Cc1[nH]/c(=N\C(=O)c2csc(NCC(C)C)n2)sc1C`, the cytotoxicity at 70.5 h amounted to 5.69%.

In the case of `O=C(Cn1cc(-c2ccccc2)ncc1=O)Nc1nnc[nH]1`, the cytotoxicity at 70.5 h was -13.5%.

Consider `O=C(Cn1c(=O)nc2n1C(=O)N(c1ccccc1)C2)Nc1ccccc1`, for which the cytotoxicity at 70.5 h is -7.97%.

With `COCCNC(=O)c1sc(Nc2ccc(Cl)cn2)nc1C`, the cytotoxicity at 70.5 h is -13.2%.

On to `COCc1c(C(=O)O)nnn1Cc1cccc(C(F)(F)F)c1`, for which the cytotoxicity at 70.5 h is -18.5%.

On to `O=C(Cn1cc(C(=O)O)ccc1=O)Nc1ccc(F)cc1Cl`, for which the cytotoxicity at 70.5 h is -23.3%.

For the compound `Cc1ccc(C2C3=C(COC3=O)Nc3[nH]nc(C)c32)cc1C` (configuration not stated), the cytotoxicity at 70.5 h is -3.38%.

For the compound `CC(C)CCN1CN=C(NS(=O)(=O)c2ccc(F)cc2)NC1`, the cytotoxicity at 70.5 h was -8.69%.

As for `Cc1c(C)n(Cc2ccncc2)c2nc3c(c(N)c12)CCCCC3`, the cytotoxicity at 70.5 h was found to be 25.4%.

On to `CCOC(=O)C1CCN(C(=O)Cn2ccc3cc(Br)ccc32)CC1`, for which the cytotoxicity at 70.5 h came to 24.7%.

In the case of `O=C(NCCN1CCCCC1)c1nc(-c2ccc3cc[nH]c3c2)no1`, the cytotoxicity at 70.5 h was -4.34%.

As for `Cn1c(=O)n(C)c2cc(C3SCC(=O)Nc4ccsc43)ccc21` (configuration not stated), the cytotoxicity at 70.5 h turned out to be 38.6%.

With `CC(C)NC(=O)c1ccc2c(c1)nc1n2CCN(C(C)C)C1`, the cytotoxicity at 70.5 h was -13.4%.

As for `CC(C)c1cc2c(O)nc(CSCC(=O)O)nc2s1`, the cytotoxicity at 70.5 h was -14.7%.

On to `COc1ccc(-c2noc(C(=O)NCCN3CCCCC3)n2)cc1OC`, for which the cytotoxicity at 70.5 h is 26.1%.

As to `CC(C)NC(=O)c1ccc2c(c1)nc1n2CCN(c2ccccc2)C1`, the cytotoxicity at 70.5 h was -11.7%.

Regarding `O=c1ccc(-c2cccs2)nn1CN1CCN(Cc2ccccc2)CC1`, the cytotoxicity at 70.5 h is -13.1%.

`O=C1CC(c2ccccc2F)c2c(n3ccsc3nc2=O)N1` (configuration not stated): the cytotoxicity at 70.5 h is -14%.

On to `CCOc1ccc(C2CC(=O)Nc3c2c(=O)nc2sccn32)cc1` (configuration not stated), for which the cytotoxicity at 70.5 h is -31.7%.

For the compound `COc1cc(CC(O)CO)c(OC)c2c1OCO2` (configuration not stated), the cytotoxicity at 70.5 h was 30.2%.

On to `COC(=O)CNC(=O)CSCc1nc(O)c2c(C)c(C)sc2n1`, for which the cytotoxicity at 70.5 h was -18.2%.

`CC1CCc2nc(O)c(C(=O)NCCN(C)C)cc2C1` (configuration not stated): the cytotoxicity at 70.5 h is -18.1%.

For the compound `O=C1CSC(c2ccsc2)c2sccc2N1` (configuration not stated), the cytotoxicity at 70.5 h is -18.3%.

Consider `O=C(Cn1nc(-c2cccs2)ccc1=O)N1CCCCCC1`, for which the cytotoxicity at 70.5 h is -24.9%.

As for `Cc1ccc(C)c(-c2csc(N)c2C#N)c1`, the cytotoxicity at 70.5 h is -3.45%.

In the case of `O=c1[nH]c2c(c(=O)n1C1CCCCC1)CCC2Nc1ccccc1` (configuration not stated), the cytotoxicity at 70.5 h was 6.54%.

As to `CCCN1C(=O)CC(N2CCN(c3ccc(F)cc3)CC2)C1=O` (configuration not stated), the cytotoxicity at 70.5 h was found to be 7.23%.

Turning to `Cc1cc2nc(SCC(=O)N3CCCC3)n(C(C)C)c(=O)c2[nH]1`, the cytotoxicity at 70.5 h turned out to be 14.9%.

In the case of `CCc1ccc(-n2c(=O)[nH]c3nc(N4CCSCC4)ncc3c2=O)cc1`, the cytotoxicity at 70.5 h is -8.65%.

For `COc1cccc(N2CCN(CC(O)c3cc(C)ccc3C)CC2)c1` (configuration not stated), the cytotoxicity at 70.5 h came to 30.4%.

With `CC(C)n1c(=O)nc2n1C(=O)N(c1ccccc1)C2`, the cytotoxicity at 70.5 h is -5.73%.

As to `CCn1nccc1CN(C)C(=O)Cn1nc(C)cc1C`, the cytotoxicity at 70.5 h is 16.1%.

For `CCC(=O)N1CCCCC1c1nc(N(C)C)ncc1-c1cc(C)no1` (configuration not stated), the cytotoxicity at 70.5 h turned out to be 1.06%.

With `CN(C)C(=O)c1cccc(C2CNCCN2C)c1` (configuration not stated), the cytotoxicity at 70.5 h was -4.31%.

As to `CC(c1cc(O)nc(NC2CCCC2)n1)n1ncc2ccccc2c1=O` (configuration not stated), the cytotoxicity at 70.5 h was -8.36%.

For `CN(CC1(C)COC1)C(=O)c1cc(-c2cnn(C)c2)nc2ccccc12`, the cytotoxicity at 70.5 h was -6.09%.

On to `CNc1cccc(CC2COCCN(C(=O)c3cccnc3)C2)n1` (configuration not stated), for which the cytotoxicity at 70.5 h was -3.83%.

On to `O=C(c1cncs1)N1CCOCC(Cc2ccncn2)C1` (configuration not stated), for which the cytotoxicity at 70.5 h was -7.66%.

Take `CC1(C(=O)N2CCN(c3cnccn3)CC2)CNCCO1` (configuration not stated): the cytotoxicity at 70.5 h was found to be 28.1%.

In the case of `CCn1ncc(S(=O)(=O)N[C@@H]2CC[C@@H](n3ccnc3)[C@@H]2O)c1C`, the cytotoxicity at 70.5 h is -10.4%.

Take `COCCNc1ncc(-c2cc(C)no2)c(-c2ccco2)n1`: the cytotoxicity at 70.5 h is 8.77%.

As to `CCOCCCNc1ncc(-c2onc(C)c2C)c(-c2ccco2)n1`, the cytotoxicity at 70.5 h was -10.1%.

With `Cc1noc(-c2cnc(NCC3CCCO3)nc2-c2ccco2)c1C` (configuration not stated), the cytotoxicity at 70.5 h was -7.96%.

For `Cc1noc(-c2cnc(NC3CC3)nc2-c2ccco2)c1C`, the cytotoxicity at 70.5 h is -14.9%.

For the compound `Cc1c[nH]c(C2CCCN2C(=O)CCc2c(C)n[nH]c2C)n1` (configuration not stated), the cytotoxicity at 70.5 h was -11.3%.

Turning to `CNC(=O)CCc1cc(C)nc(C2CCN(CC(=O)N(C)C)CC2)c1`, the cytotoxicity at 70.5 h is -6.28%.

For the compound `CN(C)c1cncc(C2CCCN(c3cnccn3)C2)n1` (configuration not stated), the cytotoxicity at 70.5 h was -6.42%.

Take `c1cncc(CN2CCC(c3csc4nccn34)CC2)c1`: the cytotoxicity at 70.5 h was -4.71%.

As to `O=S(=O)(N1CCOCC1)N1CCCC(c2ccccn2)C1` (configuration not stated), the cytotoxicity at 70.5 h was -8.61%.

Turning to `COc1ccc(CNCC(C)Oc2ccccn2)cc1Br` (configuration not stated), the cytotoxicity at 70.5 h was -18.5%.

Take `COCCNc1cc(C2CCCNC2)ccn1` (configuration not stated): the cytotoxicity at 70.5 h is -7.3%.

With `CNC(=O)c1ccc2c(c1)C1(CCN(CC3CC3)CC1)C(=O)N2`, the cytotoxicity at 70.5 h is 1.88%.

As to `COCCN1CCC2(CC1)C(=O)Nc1ccc(C(=O)NC(C)C)cc12`, the cytotoxicity at 70.5 h is 1.35%.

For the compound `CNC(=O)CN1CC[C@H]2CN(C(=O)c3ccccc3C)C[C@H]2C1`, the cytotoxicity at 70.5 h was -3.61%.

Regarding `CC(C)CNC(=O)[C@H]1CCS(=O)(=O)[C@@H]2CN(Cc3ccc(F)cc3)C[C@H]12`, the cytotoxicity at 70.5 h is -10.2%.

Take `Cc1noc(C)c1CN1C[C@@H]2CCCO[C@@H]2[C@H](Nc2ccccn2)C1`: the cytotoxicity at 70.5 h was -4.07%.

For the compound `O=C(CC1CC1)N1CC[C@@H]2[C@H](CC1)N(Cc1cccnc1)CCS2(=O)=O`, the cytotoxicity at 70.5 h amounted to 5.01%.

Regarding `c1cncc(C2COC3(CCN(Cc4ccsc4)CC3)C2)c1` (configuration not stated), the cytotoxicity at 70.5 h is -3.18%.

Consider `CCS(=O)(=O)N1CC[C@@H]2[C@H](CC1)N(Cc1cccnc1)CCS2(=O)=O`, for which the cytotoxicity at 70.5 h is -4.2%.

These data come from ChEMBL document CHEMBL3507680, “University of Dundee, Gates Library screen for HepG2 cell viability”.
